# Tested on: ABCA-1 gene
# Test: compounds tested and found to elevate cellular expression of the ABCA-1 gene (Examples 1-6; test not named)
# Type: cell-based
# Experimental: Activity testing is conducted as described in those patents and patent applications referenced above, and in the Examples below, and by methods apparent to one skilled in the art.
row,SMILES,cellular expression of the ABCA-1 gene
1,"O=C(NC1=NCCS1)c1ccccc1F [(2-fluorophenyl)-N-(1,3-thiazolin-2-yl)carboxamide]",elevate cellular expression of the ABCA-1 gene
2,Cc1ccc2cc(NC(=O)c3ccccc3F)ccc2n1 [(2-fluorophenyl)-N-(2-methyl(6-quinolyl))carboxamide],elevate cellular expression of the ABCA-1 gene
3,"O=C1CSC(NC(=O)c2ccccc2C(F)(F)F)=N1 [(2-trifluoromethylphenyl)-N-(4-oxo(1,3-thiazolin-2-yl))carboxamide]",elevate cellular expression of the ABCA-1 gene
4,CCN(CCCN(CC)c1nc2cc(C(=O)Nc3ccc(OC)cc3)ccc2o1)C(=O)c1ccoc1 [(2-{ethyl[3-(N-ethyl-3-furylcarbonylamino)propyl]amino}benzoxazol-5-yl)-N-(4-methoxyphenyl)carboxamide],elevate cellular expression of the ABCA-1 gene
5,Cc1ccc2nc(/C(C#N)=C/c3ccco3)[nH]c2c1 [(2E)-3-(2-furyl)-2-(5-methylbenzimidazol-2-yl)prop-2-enenitrile],elevate cellular expression of the ABCA-1 gene
6,O=C(/C=C/c1ccccc1)NCCN(C(=O)Nc1cccc(C(F)(F)F)c1)c1ccccc1 [(2E)-3-phenyl-N-[2-(phenyl {N-[3-(trifluoromethyl)phenyl]carbamoyl}amino)ethyl]prop-2-enamide],elevate cellular expression of the ABCA-1 gene
7,"O=C(Nc1cccc(Cl)c1)Nc1ccc2c(c1)OCCO2 [(2H,3H-benzo[e]1,4-dioxin-6-ylamino)-N-(3-chlorophenyl)lcarboxamide]",elevate cellular expression of the ABCA-1 gene
8,"O=C(Nc1ccc2c(c1)OCCO2)NC1CCCCC1 [(2H,3H-benzo[e]1,4-dioxin-6-ylamino)-N-cyclohexylcarboxamide]",elevate cellular expression of the ABCA-1 gene
9,"COc1cc(C(=O)NC2=NCCS2)cc(OC)c1OC [(3,4,5-trimethoxyphenyl)-N-(1,3-thiazolin-2-yl)carboxamide]",elevate cellular expression of the ABCA-1 gene
10,"COc1cc(C(=O)NC2=NC(=O)CS2)cc(OC)c1OC [(3,4,5-trimethoxyphenyl)-N-(4-oxo(1,3-thiazolin-2-yl))carboxamide]",elevate cellular expression of the ABCA-1 gene
11,"O=C(NC1=NCCS1)c1ccc(Cl)c(Cl)c1 [(3,4-dichlorophenyl)-N-(1,3-thiazolin-2-yl)carboxamide]",elevate cellular expression of the ABCA-1 gene
12,"O=C1CSC(NC(=O)c2ccc(Cl)c(Cl)c2)=N1 [(3,4-dichlorophenyl)-N-(4-oxo(1,3-thiazolin-2-yl))carboxamide]",elevate cellular expression of the ABCA-1 gene
13,"O=C(Nc1nc2ccccc2c(=O)o1)c1ccc(Cl)c(Cl)c1 [(3,4-dichlorophenyl)-N-(4-oxobenzo[d]1,3-oxazin-2-yl)carboxamide]",elevate cellular expression of the ABCA-1 gene
14,"O=C(NC1=NCCS1)c1ccc(F)c(F)c1 [(3,4-difluorophenyl)-N-(1,3-thiazolin-2-yl)carboxamide]",elevate cellular expression of the ABCA-1 gene
15,"O=C1CSC(NC(=O)c2ccc(F)c(F)c2)=N1 [(3,4-difluorophenyl)-N-(4-oxo(1,3-thiazolin-2-yl))carboxamide]",elevate cellular expression of the ABCA-1 gene
16,"Cc1ccc(C(=O)Nc2nc(-c3ccccc3)cs2)cc1C [(3,4-dimethylphenyl)-N-(4-phenyl(1,3-thiazol-2-yl))carboxamide]",elevate cellular expression of the ABCA-1 gene
17,"O=C(NC1=NCCS1)c1cc(C(F)(F)F)cc(C(F)(F)F)c1 [(3,5-bistrifluoromethylphenyl)-N-(1,3-thiazolin-2-yl)carboxamide]",elevate cellular expression of the ABCA-1 gene
18,"COc1cc(OC)cc(C(=O)NC2=NCCS2)c1 [(3,5-dimethoxyphenyl)-N-(1,3-thiazolin-2-yl)carboxamide]",elevate cellular expression of the ABCA-1 gene
19,"COc1cc(OC)cc(C(=O)NC2=NC(=O)CS2)c1 [(3,5-dimethoxyphenyl)-N-(4-oxo(1,3-thiazolin-2-yl))carboxamide]",elevate cellular expression of the ABCA-1 gene
20,O=C(Nc1ccc2ccccc2c1)c1sc2ccccc2c1Cl [(3-chlorobenzo[b]thiophen-2-yl)-N-(2-naphthyl)carboxamide],elevate cellular expression of the ABCA-1 gene
21,O=C(NCCc1ccccn1)c1sc2ccccc2c1Cl [(3-chlorobenzo[b]thiophen-2-yl)-N-(2-pyridyl)ethyl)carboxamide],elevate cellular expression of the ABCA-1 gene
22,Cc1cccc(NC(=O)c2sc3ccccc3c2Cl)c1 [(3-chlorobenzo[b]thiophen-2-yl)-N-(3-methylphenyl)carboxamide],elevate cellular expression of the ABCA-1 gene

row,SMILES,cellular expression of the ABCA-1 gene
1,O=C(Nc1ccc(Br)cc1)c1sc2ccccc2c1Cl [(3-chlorobenzo[b]thiophen-2-yl)-N-(4-bromophenyl)carboxamide],elevate cellular expression of the ABCA-1 gene
2,O=C(Nc1ccc(Cl)cc1)c1sc2ccccc2c1Cl [(3-chlorobenzo[b]thiophen-2-yl)-N-(4-chlorophenyl)carboxamide],elevate cellular expression of the ABCA-1 gene
3,"O=C(NC1=NCCS1)c1cccc(Cl)c1 [(3-chlorophenyl)-N-(1,3-thiazolin-2-yl)carboxamide]",elevate cellular expression of the ABCA-1 gene
4,"O=C1CSC(NC(=O)c2cccc(Cl)c2)=N1 [(3-chlorophenyl)-N-(4-oxo(1,3-thiazolin-2-yl))carboxamide]",elevate cellular expression of the ABCA-1 gene
5,"O=C(NC1=NCCS1)c1cccc(F)c1 [(3-fluorophenyl)-N-(1,3-thiazolin-2-yl)carboxamide]",elevate cellular expression of the ABCA-1 gene
6,"O=C1CSC(NC(=O)c2cccc(F)c2)=N1 [(3-fluorophenyl)-N-(4-oxo(1,3-thiazolin-2-yl))carboxamide]",elevate cellular expression of the ABCA-1 gene
7,"COc1cccc(C(=O)NC2=NCCS2)c1 [(3-methoxyphenyl)-N-(1,3-thiazolin-2-yl)carboxamide]",elevate cellular expression of the ABCA-1 gene
8,"COc1cccc(C(=O)NC2=NC(=O)CS2)c1 [(3-methoxyphenyl)-N-(4-oxo(1,3-thiazolin-2-yl))carboxamide]",elevate cellular expression of the ABCA-1 gene
9,O=C(c1ccc(Br)cc1)N(CCc1ccccc1)Cc1ccc(C(F)(F)F)cc1 [(4-bromophenyl)-N-(2-phenylethyl)-N-{[4-(trifluoromethyl)phenyl]methyl}-carboxamide],elevate cellular expression of the ABCA-1 gene
10,"O=C(NC1=NCCS1)c1ccc(Cl)cc1 [(4-chlorophenyl)-N-(1,3-thiazolin-2-yl)carboxamide]",elevate cellular expression of the ABCA-1 gene
11,O=C(Nc1ccc(Cl)cc1)c1ccc(Cl)cc1 [(4-chlorophenyl)-N-(4-chlorophenyl)carboxamide],elevate cellular expression of the ABCA-1 gene
12,"O=C1CSC(NC(=O)c2ccc(Cl)cc2)=N1 [(4-chlorophenyl)-N-(4-oxo(1,3-thiazolin-2-yl))carboxamide]",elevate cellular expression of the ABCA-1 gene
13,"O=C(Nc1nc2ccccc2c(=O)o1)c1ccc(Cl)cc1 [(4-chlorophenyl)-N-(4-oxobenzo[d]1,3-oxazin-2-yl)carboxamide]",elevate cellular expression of the ABCA-1 gene
14,"Cc1ccc(-c2cnc(NC(=O)c3ccc(Cl)cc3)s2)cc1 [(4-chlorophenyl)-N-[5-(4-methylphenyl)(1,3-thiazol-2-yl)]carboxamide]",elevate cellular expression of the ABCA-1 gene
15,Cn1cccc1CN(CCc1ccccn1)C(=O)c1ccc(Cl)cc1 [(4-chlorophenyl)-N-[(1-methylpyrrol-2-yl)methyl]-N-(2-(2-pyridyl)ethyl)carboxamide],elevate cellular expression of the ABCA-1 gene
16,"N#Cc1ccc(C(=O)NC2=NCCS2)cc1 [(4-cyanophenyl)-N-(1,3-thiazolin-2-yl)carboxamide]",elevate cellular expression of the ABCA-1 gene
17,"N#Cc1ccc(C(=O)Nc2nc(-c3ccc4ccccc4c3)cs2)cc1 [(4-cyanophenyl)-N-(4-(2-naphthyl)(1,3-thiazol-2-yl))carboxamide]",elevate cellular expression of the ABCA-1 gene
18,"N#Cc1ccc(C(=O)NC2=NC(=O)CS2)cc1 [(4-cyanophenyl)-N-(4-oxo(1,3-thiazolin-2-yl))carboxamide]",elevate cellular expression of the ABCA-1 gene
19,"N#Cc1ccc(C(=O)Nc2nc(-c3ccccc3)cs2)cc1 [(4-cyanophenyl)-N-(4-phenyl(1,3-thiazol-2-yl))carboxamide]",elevate cellular expression of the ABCA-1 gene
20,"N#Cc1ccc(C(=O)Nc2ncc(-c3ccccc3)s2)cc1 [(4-cyanophenyl)-N-(5-phenyl(1,3-thiazol-2-yl))carboxamide]",elevate cellular expression of the ABCA-1 gene
21,CCc1ccc(C(=O)NCCN(C(=O)Nc2ccc([N+](=O)[O-])cc2)c2ccccc2)cc1 [(4-ethylphenyl)-N-(2-{[N-(4-nitrophenyl)carbamoyl]phenylamino}ethyl)carboxamide],elevate cellular expression of the ABCA-1 gene
22,CCc1ccc(C(=O)NCCN(C(=O)Nc2ccc(Oc3ccccc3)cc2)c2ccccc2)cc1 [(4-ethylphenyl)-N-(2-{phenyl[N-(4-phenoxyphenyl)carbamoyl]amino}ethyl) carboxamide],elevate cellular expression of the ABCA-1 gene

# Source: US6900219B2, “ABCA-1 elevating compounds” (CV Therapeutics, Inc., priority 2002, dated 2005)
